What was measured:
HepG2 = assay: Cell viability, HepG2; format: cell-based, human; details: 1 mM for 3 hour
Procedure: Caspase-3 activity and reduced cell viability was also measured in cell lines (HepG2, THLE-2, and VX2 cell lines) following 3-bromopyruvate treatment (1 mM for 3 hour) (FIG. 6A). Caspase-3 activity increased in each cell line following treatment and cell viability decreased following treatment. An increase in caspase-3 activity indicated the mechanism of cell death is apoptotic. FIGS. 6 B and C show cell viability is reduced in each cell line with increasing 3-bromopyruvate concentration after 1 and 3 hours of treatment.

VX2 tumor = assay: Longitudinal survival studies in the VX2 rabbit model; format: in vivo
Text: In a longitudinal study to investigate the effect of 3-bromopyruvate treatment in the VX2 rabbit model, it was observed that although the treated rabbits lived longer than the untreated ones (statistically significant), the treated rabbits were not cured of their tumors and died within weeks of treatment of massive tumor growth. The extremely aggressive nature of the VX2 tumor was not stopped by the treatment and the tumor re-grew despite the high initial percentage of cancer cell death. Further studies were thus needed to determine the optimal dose and method of infusion of 3-bromopyruvate to attain significant long-term survival, complete eradication of the tumor.
VX2 tumors are extremely aggressive and are rendered more aggressive and difficult to treat by the passage of this tumor from generation to generation (>100) in the thigh of a rabbit making each generation more virulent than the last. […] As described herein continuous intraarterial infusion of 1.7 mM 3-bromopyruvate is an effective and potent therapy for treating liver cancer.

rat mammary tumor (RMT) = assay: FDG uptake after IP injection in tumor bearing rats; format: in vivo
Text: (§1) After having established the anti-glycolytic effect of 3-bromopyruvate in vitro, we designed a series of experiments to confirm this property in vivo. For this purpose, two different animal models, the Lewis rat mammary tumor model and the orthotopic VX2 rabbit liver cancer model were used. Since glucose uptake can be monitored using fluorine-labeled deoxyglucose (FDG), potential sites of decreased FDG uptake as a result of 3-bromopyruvate activity could be identified. The effects of intraperitonealy (IP) injected 3-bromopyruvate in non-tumor bearing rats were compared to those in tumor bearing rats. The tumors were derived from the rat mammary tumor (RMT) cell line and transplanted into the back adipose tissue of the rat and allowed to grow for 10 days. After having determined the maximum tolerated dose, all animals received two bolus doses (one hour apart) of 3-bromopyruvate injected IP. The FDG was injected 30 minutes after the first injection of 3-bromopyruvate and all animals were sacrificed 60 minutes after the FDG was injected. The tumors and all major organs were removed, weighed and analyzed in a gamma counter. […]

[1] = test system: back adipose tissue (BAT); assay: FDG uptake after IP injection in non-tumor bearing rats; format: in vivo, rat
Text: as §1

[2] = two IP bolus doses one hour apart

## O=C(O)C(=O)CBr [3-bromopyruvate]
HepG2
  cell viability: decreased
VX2 tumor; VX2 rabbit model, not cured, tumor re-grew
  survival versus untreated rabbits: lived longer
VX2 tumor; animals with 100% tumor kill
  delay of tumor progression versus saline (IA) controls: 75%
Rat mammary tumor (RMT); two IP bolus doses
  FDG uptake in all other organs: unaffected
Rat mammary tumor (RMT); [2]
  decrease in FDG uptake in the tumor: 50%
[1]; two IP bolus doses
  FDG uptake in other organs: affected no other organs
[1]; [2]
  decrease in FDG uptake (percentage of injected dose per gram of tissue) in back adipose tissue: 10 fold

— US20100203110A1, “Therapeutics for Cancer Using 3-Bromopyruvate and Other Selective Inhibitors of ATP Production” (The Johns Hopkins University, priority 2006, published 2010)
